# Structures can show the parent of a compound that is named as a salt.
# Molecular target: T1, BACE1 (Homo sapiens, UniProt P56817)
# T1 construct: endogenous in cells; host or cells: HEK293 APP cells
# Assay: Cellular Aβ-lowering assay (Abeta 40 AlphaLISA)
# Type: cell-based
# Details: HEK293 APP cells; 18-20 hrs incubation; Aβ 40 in culture supernatants by AlphaLISA; read-out: BACE1 cell act. Aβ40 IC50
# Procedure: Cellular Aβ-lowering assay:
# The Abeta 40 AlphaLISA Assay can be used. The HEK293 APP cells were seeded in 96 well Microtiter plates in cell culture medium (Iscove's, plus 10% (v/v) fetal bovine serum, penicillin/streptomycin) to about 80% confluency and the compounds were added at a 3× concentration in ⅓ volume of culture medium (final DMSO concentration was kept at 1% v/v). After 18-20 hrs incubation at 37° C. and 5% CO2 in a humidified incubator, the culture supernatants were harvested for the determination of Aβ 40 concentrations using Perkin-Elmer Human Amyloid beta 1-40 (high specificity) Kit (Cat#AL275C).
# In a Perkin-Elmer White Optiplate-384 (Cat#6007290), 2 ul culture supernatants were combined with 2 μl of a 10× AlphaLISA Anti-hAβAcceptor beads+Biotinylated Antibody Anti-Aβ1-40 Mix (50 μg/mL/5 nM). After 1 hour room temperature incubation, 16 μl of a 1.25× preparation of Streptavidin (SA) Donor beads (25 μg/mL) were added and incubated for 30 minutes in the Dark. Light Emission at 615 nm was then recorded using EnVision-Alpha Reader. Levels of Aβ 40 in the culture supernatants were calculated as percentage of maximum signal (cells treated with 1% DMSO without inhibitor). The IC50 values were calculated using the Excel XLfit software.
# T1 sequence (P56817 46-501): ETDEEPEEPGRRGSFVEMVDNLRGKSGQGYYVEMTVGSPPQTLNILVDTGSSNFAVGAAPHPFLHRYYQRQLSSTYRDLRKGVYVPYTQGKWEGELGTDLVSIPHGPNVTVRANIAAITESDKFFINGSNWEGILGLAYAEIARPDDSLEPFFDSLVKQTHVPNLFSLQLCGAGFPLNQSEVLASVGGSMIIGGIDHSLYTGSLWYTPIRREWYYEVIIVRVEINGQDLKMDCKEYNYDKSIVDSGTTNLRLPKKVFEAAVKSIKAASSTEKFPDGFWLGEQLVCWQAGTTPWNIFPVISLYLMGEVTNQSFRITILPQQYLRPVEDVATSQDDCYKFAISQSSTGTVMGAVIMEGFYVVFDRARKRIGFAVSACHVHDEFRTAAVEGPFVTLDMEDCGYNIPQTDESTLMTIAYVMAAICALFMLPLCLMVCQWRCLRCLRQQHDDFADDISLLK
row,SMILES,IC50 [nM]
1,"NC1=N[C@](CF)(c2cc(-c3nc4ccc(Cl)cc4o3)ccc2F)C[C@@H](C(F)(F)F)O1 [Example 45, (4S,6S)-4-(5-(6-Chlorobenzo[d]oxazol-2-yl)-2-fluorophenyl)-4-(fluoromethyl)-6-(trifluoromethyl)-5,6-dihydro-4H-1,3-oxazin-2-amine]",1640
2,"C[C@]1(F)[C@H](C(F)(F)F)OC(N)=N[C@]1(C)c1cc(NC(=O)c2ccc(C#N)cn2)ccc1F [Example 9, N-(3-((4R,5R,6R)-2-Amino-5-fluoro-4,5-dimethyl-6-(trifluoromethyl)-5,6-dihydro-4H-1,3-oxazin-4-yl)-4-fluorophenyl)-5-cyanopicolinamide]",440
3,"C[C@]1(c2cc(NC(=O)c3cnc(C(F)F)cn3)ccc2F)N=C(N)O[C@H](C(F)(F)F)[C@@H]1F [Example 6, N-(3-((4R,5R,6S)-2-Amino-5-fluoro-4-methyl-6-(trifluoromethyl)-5,6-dihydro-4H-1,3-oxazin-4-yl)-4-fluorophenyl)-5-(difluoromethyl)pyrazine-2-carboxamide]",58
4,"C[C@@]1(c2cc(C#Cc3ccc(Cl)nc3)ccc2F)C[C@@H](C(F)(F)F)OC(N)=N1 [Example 76, (4S,6S)-4-[5-[2-(6-Chloropyridin-3-yl)ethynyl]-2-fluorophenyl]-4-methyl-6-(trifluoromethyl)-5,6-dihydro-1,3-oxazin-2-amine]",1920
5,"C[C@@]1(c2cc(-c3ccccc3)ccc2F)C[C@@H](C(F)(F)F)OC(N)=N1 [Example 41, (4S,6S)-4-(4-Fluorobiphenyl-3-yl)-4-methyl-6-(trifluoromethyl)-5,6-dihydro-4H-1,3-oxazin-2-amine]",6420
6,"C[C@@]1(c2cc(C#Cc3ccc(Cl)cc3)ccc2F)C[C@@H](C(F)(F)F)OC(N)=N1 [Example 75, (4S,6S)-4-(5-((4-Chlorophenyl)ethynyl)-2-fluorophenyl)-4-methyl-6-(trifluoromethyl)-5,6-dihydro-4H-1,3-oxazin-2-amine]",1430
7,"N#Cc1ccc(C#Cc2ccc(F)c([C@]3(CF)C[C@@H](C(F)(F)F)OC(N)=N3)c2)nc1 [Example 62, 6-((3-((4S,6S)-2-Amino-4-(fluoromethyl)-6-(trifluoromethyl)-5,6-dihydro-4H-1,3-oxazin-4-yl)-4-fluorophenyl)ethynyl)nicotinonitrile]",400
8,"C[C@@]1(c2cc(-c3cn(-c4ccc(C#N)cn4)nn3)ccc2F)C[C@@H](C(F)(F)F)OC(N)=N1 [Example 77, 6-(4-(3-((4S,6S)-2-Amino-4-methyl-6-(trifluoromethyl)-5,6-dihydro-4H-1,3-oxazin-4-yl)-4-fluorophenyl)-1H-1,2,3-triazol-1-yl)nicotinonitrile]",180
9,"NC1=N[C@](CF)(c2cc(C#Cc3ncc(Cl)cn3)ccc2F)C[C@@H](C(F)(F)F)O1 [Example 63, (4S,6S)-4-[5-[2-(5-Chloropyrimidin-2-yl)ethynyl]-2-fluorophenyl]-4-(fluoromethyl)-6-(trifluoromethyl)-5,6-dihydro-1,3-oxazin-2-amine]",430
10,"N#Cc1cnc(C#Cc2ccc(F)c([C@]3(CF)C[C@@H](C(F)(F)F)OC(N)=N3)c2)c(Cl)c1 [Example 59, 6-((3-((4S,6S)-2-Amino-4-(fluoromethyl)-6-(trifluoromethyl)-5,6-dihydro-4H-1,3-oxazin-4-yl)-4-fluorophenyl)ethynyl)-5-chloronicotinonitrile]",790
11,"C[C@]1(c2cc(NC(=O)c3ccc(Cl)cn3)ccc2F)N=C(N)O[C@H](C(F)(F)F)[C@@H]1F [Example 4, N-(3-((4R,5R,6S)-2-Amino-5-fluoro-4-methyl-6-(trifluoromethyl)-5,6-dihydro-4H-1,3-oxazin-4-yl)-4-fluorophenyl)-5-chloropicolinamide]",14
12,"C[C@@]1(c2cc(-c3cnn(C(F)F)c3)ccc2F)C[C@@H](C(F)(F)F)OC(N)=N1 [Example 16, (4S,6S)-4-(5-(1-(Difluoromethyl)-1H-pyrazol-4-yl)-2-fluorophenyl)-4-methyl-6-(trifluoromethyl)-5,6-dihydro-4H-1,3-oxazin-2-amine]",1100
13,"Cc1cc(F)c([C@]2(C)C[C@@H](C(F)(F)F)OC(N)=N2)cc1C#Cc1ncc(Cl)cn1 [Example 72, (4S,6S)-4-(5-((5-Chloropyrimidin-2-yl)ethynyl)-2-fluoro-4-methylphenyl)-4-methyl-6-(trifluoromethyl)-5,6-dihydro-4H-1,3-oxazin-2-amine]",110
14,"C[C@]1(c2cc(NC(=O)c3ccc(Cl)cn3)ccc2F)N=C(N)O[C@@H](C(F)(F)F)[C@@H]1F [Example 3, N-(3-((4R,5R,6R)-2-Amino-5-fluoro-4-methyl-6-(trifluoromethyl)-5,6-dihydro-4H-1,3-oxazin-4-yl)-4-fluorophenyl)-5-chloropicolinamide]",490

# Next, values leading:
row,IC50 [nM],SMILES
1,59,"C[C@@]1(c2cc(C#Cc3ccc(C#N)cn3)ccc2F)C[C@@H](C(F)(F)F)OC(N)=N1 [Example 21, 6-((3-((4S,6S)-2-Amino-4-methyl-6-(trifluoromethyl)-5,6-dihydro-4H-1,3-oxazin-4-yl)-4-fluorophenyl)ethynyl)nicotinonitrile]"
2,330,"C[C@@]1(c2cc(NC(=O)c3ccc(Cl)cn3)cs2)C[C@@H](C(F)(F)F)OC(N)=N1 [Example 34, N-(5-((4S,6S)-2-amino-4-methyl-6-(trifluoromethyl)-5,6-dihydro-4H-1,3-oxazin-4-yl)thiophen-3-yl)-5-chloropicolinamide]"
3,1380,"C[C@@]1(c2cc(-c3cccnc3F)cs2)C[C@@H](C(F)(F)F)OC(N)=N1 [Example 27, (4S,6S)-4-(4-(2-Fluoropyridin-3-yl)thiophen-2-yl)-4-methyl-6-(trifluoromethyl)-5,6-dihydro-4H-1,3-oxazin-2-amine Hydrochloride]"
4,1170,"C[C@@]1(c2cc(C#Cc3cncc(Cl)c3)ccc2F)C[C@@H](C(F)(F)F)OC(N)=N1 [Example 55, (4S,6S)-4-(5-((5-chloropyridin-3-yl)ethynyl)-2-fluorophenyl)-4-methyl-6-(trifluoromethyl)-5,6-dihydro-4H-1,3-oxazin-2-amine]"
5,2020,"C[C@@]1(c2cc(CCc3ccc(C#N)cn3)ccc2F)C[C@@H](C(F)(F)F)OC(N)=N1 [Example 44, 6-(3-((4S,6S)-2-Amino-4-methyl-6-(trifluoromethyl)-5,6-dihydro-4H-1,3-oxazin-4-yl)-4-fluorophenethyl)nicotinonitrile]"
6,950,"C[C@@]1(c2cc(-c3cncc(Cl)n3)ccc2F)C[C@@H](C(F)(F)F)OC(N)=N1 [Example 15, (4S,6S)-4-(5-(6-Chloropyrazin-2-yl)-2-fluorophenyl)-4-methyl-6-(trifluoromethyl)-5,6-dihydro-4H-1,3-oxazin-2-amine]"
7,740,"C[C@@]1(c2sc(-c3cncc(Cl)c3)cc2Cl)C[C@@H](C(F)(F)F)OC(N)=N1 [Example 32, (4S,6S)-4-(3-Chloro-5-(5-chloropyridin-3-yl)thiophen-2-yl)-4-methyl-6-(trifluoromethyl)-5,6-dihydro-4H-1,3-oxazin-2-amine]"
8,700,"C[C@@]1(c2cc(-c3cncc(C#N)c3)cs2)C[C@@H](C(F)(F)F)OC(N)=N1 [Example 26, 5-(5-((4S,6S)-2-Amino-4-methyl-6-(trifluoromethyl)-5,6-dihydro-4H-1,3-oxazin-4-yl)thiophen-3-yl)nicotinonitrile Hydrochloride]"

# From patent publication US20150376172A1, “FLUORO-[1,3]OXAZINES AS BACE1 INHIBITORS” (HOFFMANN-LA ROCHE INC., priority 2013, published 2015)
